Assay results from patent publication US20020137929A1, “1 - (3-heterocyclylphenyl) isothiourea, -isourea, -guanidine and -amidine herbicidal agents” (Intellectual Property Department, BASF Aktiengesellschaft, priority 1998, published 2002).

What was measured:
ABUTH (Velvetleaf) = assay: Postemergence herbicidal evaluation; format: in vivo, Abutilon theophrasti; conditions: for ABUTH herbicidal rating: postemergence
In short: (§1)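 Visual 0–9 rating versus control (stand, vigor, malformation, size, chlorosis, overall appearance), taken four to five weeks post-spray. Two-week-old seedlings received roughly 0.0156–0.500 kg/ha active in acetone/water (50/50) with 0.5% TWEEN 20 via nozzle at 40 psi.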

[1] = tested on: IPOHE (Morningglory, Ivyleaf); assay: Postemergence herbicidal evaluation; format: in vivo, Ipomoea hederacea; conditions: for IPOHE herbicidal rating: postemergence
In short: as §1

[2] = tested on: TRZAWR (Wheat, Winter, cv Riband); assay: Postemergence herbicidal evaluation; format: in vivo, Triticum aestivum; conditions: for TRZAWR herbicidal rating: postemergence
In short: as §1

[3] = tested on: CHEAL (Lambsquarters, Common); assay: Preemergence herbicidal evaluation; format: in vivo, Chenopodium album; conditions: rated 4-5 weeks after treatment; for CHEAL rating: preemergence, 0-9 scale
In short: (§2)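 Sown cups got a single aqueous acetone spray of test compound (roughly 0.0156–0.500 kg/ha) before seedlings emerged. Evaluation, 4–5 weeks on, used a 0–9 visual scale covering plant stand, vigor, size, malformation, chlorosis and general appearance compared with controls.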

[4] = tested on: IPOHE (Morningglory, Ivyleaf); assay: Preemergence herbicidal evaluation; format: in vivo, Ipomoea hederacea; conditions: rated 4-5 weeks after treatment; for IPOHE rating: preemergence, 0-9 scale
In short: as §2

ECHCG (Barnyardgrass) = assay: Preemergence herbicidal evaluation; format: in vivo, Echinochloa crus-galli; conditions: rated 4-5 weeks after treatment; for ECHCG rating: preemergence, 0-9 scale
In short: as §2

SETVI (Foxtail, Green) = assay: Preemergence herbicidal evaluation; format: in vivo, Setaria viridis; conditions: rated 4-5 weeks after treatment; for SETVI rating: preemergence, 0-9 scale
In short: as §2

ORYSAT (Rice, Tebonnet) = assay: Preemergence herbicidal evaluation; format: in vivo, Oryza sativa, (L.) Tebonnet; conditions: rated 4-5 weeks after treatment; for ORYSAT rating: preemergence, 0-9 scale
In short: as §2

[5] = tested on: TRZAWR (Wheat, Winter, cv Riband); assay: Preemergence herbicidal evaluation; format: in vivo, Triticum aestivum; conditions: rated 4-5 weeks after treatment; for TRZAWR rating: preemergence, 0-9 scale
In short: as §2

[6] = tested on: ECHORC (Watergrass (Calif.)); assay: Preemergence weed control under flooded paddy conditions; format: in vivo, Echinochloa oryzoides; conditions: rated 3-4 weeks after treatment
In short: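 Visual injury scored 0-9 against control three to four weeks post-treatment, greenhouse-grown. Application: acetone/water (50/50) solutions dosed directly into flood water (1.5-3 cm over silt loam, planted top 0.5 cm), roughly 0.0313 to 0.500 kg/ha active ingredient.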

MOOVA (Monochoria) = assay: as above; format: in vivo, Monochoria vaginalis; conditions: rated 3-4 weeks after treatment
In short: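 Ratings on a 0-9 visual scale cover stand, vigor, malformation, size, chlorosis and overall appearance relative to a control, taken three to four weeks post-treatment. Application was into flood water over freshly sown silt loam at roughly 0.0313 to 0.500 kg/ha.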

[7] = tested on: ECHORC (Watergrass (Calif.)); assay: Postemergence weed control under flooded paddy conditions; format: in vivo, Echinochloa oryzoides; conditions: postemergence weeds
In short: (§3)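 Injury ratings (0–9 scale covering stand, vigor, malformation, size, chlorosis and overall appearance versus control) were made three to four weeks after treatment. Test material, about 0.0313 to 0.500 kg/ha a.i. in 50/50 v/v aqueous/acetone, was added to flood water 1.5 to 3 cm deep over 3 to 5 cm weeds and 1.5 to 2.5 leaf rice.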

CYPIR (Rice Flatsedge) = assay: as above; format: in vivo, Cyperus iria; conditions: postemergence weeds
In short: as §3

[8] = Rate 0.0313 kg/ha, rated 3 to 4 weeks after treatment
[9] = Rate 0.0625 kg/ha, rated 3 to 4 weeks after treatment
[10] = Rate 0.1250 kg/ha, rated 3 to 4 weeks after treatment
[11] = Rate 0.2500 kg/ha, rated 3 to 4 weeks after treatment
[12] = rate 0.0313 kg/ha, 3-4 weeks after treatment
[13] = rate 0.0625 kg/ha, 3-4 weeks after treatment
[14] = rate 0.1250 kg/ha, 3-4 weeks after treatment
[15] = rate 0.2500 kg/ha, 3-4 weeks after treatment

## CN1C(=O)C(CC(=O)NS(C)(=O)=O)SC1=Nc1cc(-n2c(=O)cc(C(F)(F)F)n(C)c2=O)c(F)cc1Cl (centres unmarked) [Compound 97, 2-{{2-Chloro-5-[3,6-dihydro-3-methyl-2,6-dioxo-4-(trifluoromethyl)-1(2H)-pyrimidinyl]-4-fluorophenyl}imino}-3-methyl-N-(methylsulfonyl)-4-oxo-5-thiazolidineacetamide]
ABUTH (Velvetleaf); rate 0.0156 kg/ha
  ABUTH herbicidal rating: 4.0
ABUTH (Velvetleaf); rate 0.0313 kg/ha
  ABUTH herbicidal rating: 4.0
ABUTH (Velvetleaf); rate 0.0625 kg/ha
  ABUTH herbicidal rating: 7.0
ABUTH (Velvetleaf); rate 0.1250 kg/ha
  ABUTH herbicidal rating: 9.0
[1]; rate 0.0156 kg/ha
  IPOHE herbicidal rating: 7.0
[1]; rate 0.0313 kg/ha
  IPOHE herbicidal rating: 9.0
[1]; rate 0.0625 kg/ha
  IPOHE herbicidal rating: 9.0
[1]; rate 0.1250 kg/ha
  IPOHE herbicidal rating: 9.0
[2]; rate 0.0156 kg/ha
  TRZAWR herbicidal rating: 1.0
[2]; rate 0.0313 kg/ha
  TRZAWR herbicidal rating: 1.5
[2]; rate 0.0625 kg/ha
  TRZAWR herbicidal rating: 2.5
[2]; rate 0.1250 kg/ha
  TRZAWR herbicidal rating: 4.0
[3]; 0.1250 kg/ha
  CHEAL rating: 7.0
[3]; 0.2500 kg/ha
  CHEAL rating: 9.0
[3]; 0.5000 kg/ha
  CHEAL rating: 9.0
[4]; 0.1250 kg/ha
  IPOHE rating: 1.0
[4]; 0.2500 kg/ha
  IPOHE rating: 9.0
[4]; 0.5000 kg/ha
  IPOHE rating: 9.0
ECHCG (Barnyardgrass); 0.1250 kg/ha
  ECHCG rating: 0.0
ECHCG (Barnyardgrass); 0.2500 kg/ha
  ECHCG rating: 0.0
ECHCG (Barnyardgrass); 0.5000 kg/ha
  ECHCG rating: 0.0
SETVI (Foxtail, Green); 0.1250 kg/ha
  SETVI rating: 0.0
SETVI (Foxtail, Green); 0.2500 kg/ha
  SETVI rating: 1.0
SETVI (Foxtail, Green); 0.5000 kg/ha
  SETVI rating: 7.0
ORYSAT (Rice, Tebonnet); 0.1250 kg/ha
  ORYSAT rating: 0.0
ORYSAT (Rice, Tebonnet); 0.2500 kg/ha
  ORYSAT rating: 1.0
ORYSAT (Rice, Tebonnet); 0.5000 kg/ha
  ORYSAT rating: 1.0
[5]; 0.1250 kg/ha
  TRZAWR rating: 0.0
[5]; 0.2500 kg/ha
  TRZAWR rating: 1.0
[5]; 0.5000 kg/ha
  TRZAWR rating: 2.0
[6]; 0.0313 kg/ha
  ECHORC herbicidal effect rating: 0.0
[6]; 0.0625 kg/ha
  ECHORC herbicidal effect rating: 0.0
[6]; 0.1250 kg/ha
  ECHORC herbicidal effect rating: 2.0
[6]; 0.2500 kg/ha
  ECHORC herbicidal effect rating: 3.0
MOOVA (Monochoria); 0.0313 kg/ha
  MOOVA herbicidal effect rating: 9.0
MOOVA (Monochoria); 0.0625 kg/ha
  MOOVA herbicidal effect rating: 9.0
MOOVA (Monochoria); 0.1250 kg/ha
  MOOVA herbicidal effect rating: 9.0
MOOVA (Monochoria); 0.2500 kg/ha
  MOOVA herbicidal effect rating: 9.0
[7]; [8]
  Herbicidal rating ECHORC: 0.0
[7]; [9]
  Herbicidal rating ECHORC: 0.0
[7]; [10]
  Herbicidal rating ECHORC: 2.0
[7]; [11]
  Herbicidal rating ECHORC: 3.0
CYPIR (Rice Flatsedge); [8]
  Herbicidal rating CYPIR: 0.0
CYPIR (Rice Flatsedge); [9]
  Herbicidal rating CYPIR: 0.0
CYPIR (Rice Flatsedge); [10]
  Herbicidal rating CYPIR: 3.0
CYPIR (Rice Flatsedge); [11]
  Herbicidal rating CYPIR: 4.0

## Cn1c(C(F)(F)F)cc(=O)n(-c2cc(N=C3SCC(=O)N3[C@@H](Cc3ccccc3)C(=O)O)c(Cl)cc2F)c1=O [Compound 53, α-Benzyl-2-{{2-chloro-5-[3,6-dihydro-3-methyl-2,6-dioxo-4-(trifluoromethyl)-1(2H)-pyrimidinyl]-4-fluorophenyl}imino}-4-oxo-3-thiazolidineacetic acid, L-]
ABUTH (Velvetleaf); Rate 0.0158 kg/ha
  Postemergence herbicidal rating ABUTH: 9.0
ABUTH (Velvetleaf); Rate 0.0315 kg/ha
  Postemergence herbicidal rating ABUTH: 9.0
ABUTH (Velvetleaf); Rate 0.0630 kg/ha
  Postemergence herbicidal rating ABUTH: 9.0
[1]; Rate 0.0158 kg/ha
  Postemergence herbicidal rating IPOHE: 9.0
[1]; Rate 0.0315 kg/ha
  Postemergence herbicidal rating IPOHE: 9.0
[1]; Rate 0.0630 kg/ha
  Postemergence herbicidal rating IPOHE: 9.0
[2]; Rate 0.0158 kg/ha
  Postemergence herbicidal rating TRZAWR: 2.5
[2]; Rate 0.0315 kg/ha
  Postemergence herbicidal rating TRZAWR: 3.0
[2]; Rate 0.0630 kg/ha
  Postemergence herbicidal rating TRZAWR: 4.0
[3]; rate 0.0313 kg/ha
  Preemergence herbicidal rating CHEAL: 9.0
[3]; rate 0.0625 kg/ha
  Preemergence herbicidal rating CHEAL: 9.0
[3]; rate 0.1250 kg/ha
  Preemergence herbicidal rating CHEAL: 9.0
[3]; rate 0.2500 kg/ha
  Preemergence herbicidal rating CHEAL: 9.0
[4]; rate 0.0313 kg/ha
  Preemergence herbicidal rating IPOHE: 0.0
[4]; rate 0.0625 kg/ha
  Preemergence herbicidal rating IPOHE: 9.0
[4]; rate 0.1250 kg/ha
  Preemergence herbicidal rating IPOHE: 9.0
[4]; rate 0.2500 kg/ha
  Preemergence herbicidal rating IPOHE: 9.0
ECHCG (Barnyardgrass); rate 0.0313 kg/ha
  Preemergence herbicidal rating ECHCG: 1.0
ECHCG (Barnyardgrass); rate 0.0625 kg/ha
  Preemergence herbicidal rating ECHCG: 4.0
ECHCG (Barnyardgrass); rate 0.1250 kg/ha
  Preemergence herbicidal rating ECHCG: 7.0
ECHCG (Barnyardgrass); rate 0.2500 kg/ha
  Preemergence herbicidal rating ECHCG: 9.0
SETVI (Foxtail, Green); rate 0.0313 kg/ha
  Preemergence herbicidal rating SETVI: 1.0
SETVI (Foxtail, Green); rate 0.0625 kg/ha
  Preemergence herbicidal rating SETVI: 4.0
SETVI (Foxtail, Green); rate 0.1250 kg/ha
  Preemergence herbicidal rating SETVI: 7.0
SETVI (Foxtail, Green); rate 0.2500 kg/ha
  Preemergence herbicidal rating SETVI: 9.0
ORYSAT (Rice, Tebonnet); rate 0.0313 kg/ha
  Preemergence herbicidal rating ORYSAT: 0.0
ORYSAT (Rice, Tebonnet); rate 0.0625 kg/ha
  Preemergence herbicidal rating ORYSAT: 1.0
ORYSAT (Rice, Tebonnet); rate 0.1250 kg/ha
  Preemergence herbicidal rating ORYSAT: 5.0
ORYSAT (Rice, Tebonnet); rate 0.2500 kg/ha
  Preemergence herbicidal rating ORYSAT: 7.0
[5]; rate 0.0313 kg/ha
  Preemergence herbicidal rating TRZAWR: 0.0
[5]; rate 0.0625 kg/ha
  Preemergence herbicidal rating TRZAWR: 1.0
[5]; rate 0.1250 kg/ha
  Preemergence herbicidal rating TRZAWR: 2.0
[5]; rate 0.2500 kg/ha
  Preemergence herbicidal rating TRZAWR: 7.0
[6]; 0.0313 kg/ha
  Herbicidal rating ECHORC: 0.0
[6]; 0.0625 kg/ha
  Herbicidal rating ECHORC: 0.0
[6]; 0.1250 kg/ha
  Herbicidal rating ECHORC: 2.0
[6]; 0.2500 kg/ha
  Herbicidal rating ECHORC: 3.0
MOOVA (Monochoria); 0.0313 kg/ha
  Herbicidal rating MOOVA: 2.0
MOOVA (Monochoria); 0.0625 kg/ha
  Herbicidal rating MOOVA: 2.0
MOOVA (Monochoria); 0.1250 kg/ha
  Herbicidal rating MOOVA: 9.0
MOOVA (Monochoria); 0.2500 kg/ha
  Herbicidal rating MOOVA: 9.0
[7]; [12]
  Herbicidal rating ECHORC: 0.0
[7]; [13]
  Herbicidal rating ECHORC: 0.0
[7]; [14]
  Herbicidal rating ECHORC: 2.0
[7]; [15]
  Herbicidal rating ECHORC: 3.0
CYPIR (Rice Flatsedge); [12]
  Herbicidal rating CYPIR: 2.0
CYPIR (Rice Flatsedge); [13]
  Herbicidal rating CYPIR: 2.0
CYPIR (Rice Flatsedge); [14]
  Herbicidal rating CYPIR: 9.0
CYPIR (Rice Flatsedge); [15]
  Herbicidal rating CYPIR: 9.0
